Values of other authors, collected in patent publication US9000165B2 (priority 2011, dated 2015).

What was measured:
[1] = target: serotonin reuptake sites (Homo sapiens, UniProt P31645)
[2] = target: serotonin 5-HT2A receptors (Homo sapiens, UniProt P28223)
[3] = tested on: α1-adrenaline agonist receptors
[4] = target: histamine H1 receptors (Homo sapiens, UniProt P35367)
[5] = tested on: cholinergic muscarinic receptors
[6] = target: T1, serotonin 5-HT1A receptors (Homo sapiens, UniProt P08908)
T1 sequence (P08908 1-422): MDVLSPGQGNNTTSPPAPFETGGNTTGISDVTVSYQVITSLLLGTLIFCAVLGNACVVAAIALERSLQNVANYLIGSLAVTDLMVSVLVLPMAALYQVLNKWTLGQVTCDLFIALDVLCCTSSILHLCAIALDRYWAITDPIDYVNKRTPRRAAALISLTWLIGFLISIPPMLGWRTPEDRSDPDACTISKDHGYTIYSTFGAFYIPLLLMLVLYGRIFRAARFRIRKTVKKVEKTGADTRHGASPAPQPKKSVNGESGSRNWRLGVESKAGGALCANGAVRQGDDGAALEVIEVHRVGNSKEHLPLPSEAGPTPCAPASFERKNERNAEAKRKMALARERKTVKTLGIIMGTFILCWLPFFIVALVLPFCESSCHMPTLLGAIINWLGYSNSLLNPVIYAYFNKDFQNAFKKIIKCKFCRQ

[7] = target: T2, serotonin 5-HT2C receptors (Homo sapiens, UniProt P28335)
T2 sequence (P28335 33-458): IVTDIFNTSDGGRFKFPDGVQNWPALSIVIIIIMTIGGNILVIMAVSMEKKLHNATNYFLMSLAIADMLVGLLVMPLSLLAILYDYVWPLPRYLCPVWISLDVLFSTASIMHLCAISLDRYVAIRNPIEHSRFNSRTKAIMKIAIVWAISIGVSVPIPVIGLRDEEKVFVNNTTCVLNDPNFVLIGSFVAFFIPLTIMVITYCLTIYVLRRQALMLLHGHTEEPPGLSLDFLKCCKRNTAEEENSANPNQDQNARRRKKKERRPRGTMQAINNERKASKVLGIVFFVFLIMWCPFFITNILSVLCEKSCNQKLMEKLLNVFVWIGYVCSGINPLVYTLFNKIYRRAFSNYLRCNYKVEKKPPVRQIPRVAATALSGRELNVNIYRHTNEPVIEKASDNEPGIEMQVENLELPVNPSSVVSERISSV

[8] = upon exposure to moisture converts into the hydrate form

Sequence of serotonin 5-HT2A receptors (P28223 whole entry): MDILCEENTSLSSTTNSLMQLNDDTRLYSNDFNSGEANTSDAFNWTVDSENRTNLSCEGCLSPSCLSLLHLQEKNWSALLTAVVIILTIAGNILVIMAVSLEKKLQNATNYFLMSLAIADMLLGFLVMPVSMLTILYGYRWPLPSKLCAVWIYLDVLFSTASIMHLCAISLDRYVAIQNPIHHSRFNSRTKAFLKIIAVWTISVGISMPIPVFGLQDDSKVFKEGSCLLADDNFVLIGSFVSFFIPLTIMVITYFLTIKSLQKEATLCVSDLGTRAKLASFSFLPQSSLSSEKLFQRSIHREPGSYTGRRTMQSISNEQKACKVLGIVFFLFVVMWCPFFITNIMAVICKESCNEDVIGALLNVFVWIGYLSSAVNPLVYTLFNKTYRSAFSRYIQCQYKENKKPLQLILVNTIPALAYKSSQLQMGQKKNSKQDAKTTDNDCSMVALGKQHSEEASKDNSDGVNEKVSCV
Sequence of histamine H1 receptors (P35367 whole entry): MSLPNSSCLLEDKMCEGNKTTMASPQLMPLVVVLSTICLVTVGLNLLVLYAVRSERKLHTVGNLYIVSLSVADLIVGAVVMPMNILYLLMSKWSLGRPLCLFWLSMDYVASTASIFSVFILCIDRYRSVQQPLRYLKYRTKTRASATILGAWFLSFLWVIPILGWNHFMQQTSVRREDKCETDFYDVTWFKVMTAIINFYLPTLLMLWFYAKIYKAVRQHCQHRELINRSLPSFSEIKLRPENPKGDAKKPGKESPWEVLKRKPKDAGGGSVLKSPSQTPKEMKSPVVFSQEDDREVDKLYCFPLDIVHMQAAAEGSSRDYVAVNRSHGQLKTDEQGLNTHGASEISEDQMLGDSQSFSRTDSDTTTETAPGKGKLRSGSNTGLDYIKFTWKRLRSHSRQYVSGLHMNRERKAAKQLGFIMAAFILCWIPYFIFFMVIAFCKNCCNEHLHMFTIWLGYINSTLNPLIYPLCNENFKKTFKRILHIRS
Sequence of serotonin reuptake sites (P31645 whole entry): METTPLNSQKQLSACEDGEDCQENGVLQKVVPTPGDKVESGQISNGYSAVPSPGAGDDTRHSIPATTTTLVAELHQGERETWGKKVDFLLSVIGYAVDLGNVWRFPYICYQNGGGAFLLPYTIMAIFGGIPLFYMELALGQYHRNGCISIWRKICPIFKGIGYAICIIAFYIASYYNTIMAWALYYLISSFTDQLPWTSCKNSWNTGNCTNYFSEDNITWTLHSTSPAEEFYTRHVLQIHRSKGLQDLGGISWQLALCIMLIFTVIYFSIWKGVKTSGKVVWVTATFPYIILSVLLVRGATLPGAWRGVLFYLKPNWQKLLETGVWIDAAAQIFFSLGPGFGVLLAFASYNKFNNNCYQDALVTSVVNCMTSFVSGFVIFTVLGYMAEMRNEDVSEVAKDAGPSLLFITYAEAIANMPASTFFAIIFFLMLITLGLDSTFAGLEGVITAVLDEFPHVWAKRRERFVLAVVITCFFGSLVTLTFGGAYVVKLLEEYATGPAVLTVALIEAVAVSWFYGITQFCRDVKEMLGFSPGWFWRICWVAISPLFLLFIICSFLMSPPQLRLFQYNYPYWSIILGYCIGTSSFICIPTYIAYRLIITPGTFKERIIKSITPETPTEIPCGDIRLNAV

Compound	affinity for serotonin reuptake sites [1]	affinity for serotonin 5-HT2A receptors [2]	affinity for α1-adrenaline agonist receptors [3]	affinity for histamine H1 receptors [4]	affinity for cholinergic muscarinic receptors [5]	affinity for serotonin 5-HT1A receptors [6]	affinity for serotonin 5-HT2C receptors [7]	hygroscopic property [8]
O=C1CCc2ccc(OCCCCN3CCN(c4cccc(Cl)c4Cl)CC3)cc2N1 [Aripiprazole]	mild affinity	potent affinity	mild affinity	mild affinity	no detectable affinity	potent affinity	mild affinity	–
O=C1CCc2ccc(OCCCCN3CCN(c4cccc(Cl)c4Cl)CC3)cc2N1 [anhydrous aripiprazole crystal form I, Aripiprazole]	–	–	–	–	–	–	–	significant hygroscopic property
